# Measurements taken from patent US7115645B2, “1,2 diarylbenzimidazoles and their pharmaceutical use” (Schering Aktiengesellschaft, priority 2000, dated 2006).
# Tested on: primary rat microglia
# Assay: Inhibition of microglia activation (Aβ-peptide-activated primary rat microglia, MTS reduction)
# Assay type: cell-based
# Conditions: 168 h, test of Example 307, metabolic activity via MTS reduction on cultivation day 7, relative to DMSO control
compound,measurement,value
"Cc1ccc(-n2c(-c3ccccc3)nc3ccc(OCCCCCC(=O)OC(C)C)cc32)cc1 [Example 49, 6-[[1-(4-Methylphenyl)-2-phenyl-1H-benzimidazol-6-yl]oxy]hexanoic acid isopropyl ester]",IC50,750 nM
